In patent US20190254997A1, “METHODS FOR INDUCING STEREOCILIA ON HAIR CELLS” (The Regents of the University of California, priority 2016, published 2019):

Columns and labels:
[1] = system: myosin7A-positive cells (HCs) in utricular explants; assay: Effect of Notch inhibition (DAPT) on GM-damaged utricular explants, myosin7A immunoreactivity; assay type: cell-based, CD-1 mice; conditions: for number of myosin7A-positive cells: with or without 20 μM DAPT for 2 days then 5 days without, mean ± SD
Method: Effect of notch inhibition. To induce HC-like cells, two days after GM damage, we cultured utricular explants with 20 μM DAPT (N-[N-[(3,5-Difluoropheny)acetyl]-L-alanyl]L-phenylglycinetert-butyl: C23H26F2N2O4, Abcam) for 2 days, followed by 5 days without DAPT. DAPT is a prototypical y-secretase inhibitor. Since Notch signaling requires γ-secretase activity, DAPT is a potent inhibitor of this signaling pathway. As a control, we cultured GM-damaged utricles for 7 days without DAPT. Explants were analyzed for myosin7A immunoreactivity both as whole mounts and as tissue sections
Histochemical analysis. At the end of the culture period, explants were fixed for 15 min in 4% paraformaldehyde and permeabilized with 5% Triton X-100 in phosphate-buffered saline (PBS) after 3×PBS wash. Explants were then exposed to a blocking solution containing 10% bovine serum albumin (BSA), and then incubated with anti-myosin7A rabbit polyclonal antibodies (25-6790; Proteus Bioscience Inc., Ramona, Calif., USA; 1:500). Alexa-Fluor 568 goat anti-rabbit IgG (A-11011, Invitrogen, Calif., USA; 1:100) was used as the secondary antibody. At the same time, specimens were incubated in FITC-conjugated or Alexa-Fluor 633 phalloidin (1:100; Invitrogen) to label F-actin for 1 hr. Finally, the explants were incubated with DAPI for 15 min. Specimens were examined using a Leica TCS-SP2 laser-scanning confocal microscope (Leica Microsystems Inc., Wetzlar, Germany). Cells with phalloidin-positive surface structures were counted in randomly selected areas and averaged in each sample for each condition, using an evaluation reticule 100 μm on each side. Results from 6-7 samples were evaluated, based on initial observations of variability.

[2] = system: HC stereociliary bundles and HC bodies of utricular maculae; assay: Gentamicin damage to HC stereociliary bundles and HC bodies in utricular macula explants; assay type: cell-based, CD-1 mice; conditions: 1mM GM for 48 hrs, utricular maculae in vitro, followed to 10 days
Text: Dissection of vestibular maculae and tissue culture. Postnatal mice were decapitated under deep anesthesia and their temporal bones were removed. Utricula maculae were dissected from the surrounding tissue in 0.01M phosphate-buffered saline, pH 7.4. The otoconial membranes were gently removed with a fine needle. Explants of utricular sensory epithelia were placed intact on type I collagen-coated cover glasses (Iwaki, Tokyo, Japan) and maintained in 24-well culture plates (Iwaki) in Dulbecco's modified Eagle's medium (Invitrogen, Eugene, Oreg., USA), supplemented with 6 g/l glucose (Wako Pure Chemicals, Osaka, Japan) and 1.5 g/l penicillin G (Wako Pure Chemicals), at 37° C. in a humidified atmosphere of 95% air and 5% CO2 for 24 hrs.
In order to examine the toxicity of gentamicin (GM) to HC stereociliary bundles and HC bodies, we damaged explants with 1mM GM (Nakarai, Japan) for 48 hrs and then maintained the explants in culture without GM for 10 days. After fixation with 4% paraformaldehyde and histochemistry (see below), we counted stereociliary bundles and HC bodies. Bundles and HC bodies were measured using a 10×40 eyepiece reticule. Each square of the reticule was 100 μm on a side. Surviving hair bundles and HC bodies were counted in each of three randomly selected fields including both striolar and extrastriolar regions, and the values obtained were averaged. […]

| Molecule | stereociliary bundles in DAPT-treated explants ([1]; 20 μM DAPT) | number of myosin7A-positive cells [1] | number of HC bodies after GM treatment [2] | stereociliary bundles after GM treatment [2] |
| --- | --- | --- | --- | --- |
| C[C@H](NC(=O)Cc1cc(F)cc(F)c1)C(=O)N[C@H](C(=O)OC(C)(C)C)c1ccccc1 [DAPT, N-[N-[(3,5-Difluoropheny)acetyl]-L-alanyl]L-phenylglycinetert-butyl] | remained very sparse | 38.5±8.64 /10000 μm2 | – | – |
| gentamicin [GM] | – | 25.4±5.5 /10000 μm2 | dramatically decreased | almost entirely lost |
